This note sets out measurements from patent publication US11667667B2, “Steroid derivative FXR agonist” (Chia Tai Tianqing Pharmaceutical Group Co., Ltd., priority 2016, dated 2023).

Data set [1] has as its target T1, FXR (FXR HEK 293T DA cell line) (Homo sapiens, UniProt Q96RI1).
T1 construct: expressed in transfected cells; host or cells: HEK 293T (FXR HEK 293T DA)
Briefly: FXR cell experiment (β-lactamase reporter gene, GeneBLAzer).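 Also: Emax relative to maximal signal of reference agonist chenodeoxycholic acid (CDCA).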 In kind it is cell-based. The settings on record: HEK-293T; read-out: FXR cell activity Efficacy. The protocol: Compound Dilution: The compound to be tested was prepared as a 100 μM DMSO solution, and then the compound was diluted 3-fold to 10 concentration points. The reference compound was prepared as a 100 μM DMSO solution, and then diluted 1.3-fold to 10 concentration points. The diluted DMSO solution was added to the wells of a 384-well plate in a volume of 200 nL per well. 2. […] The 384-well microplate was incubated at 37° C., 5% CO2 for 16 hours. 4. 6 μL of 1 mM LiveBLAzer™-FRET B/G (CCF4-AM) substrate was mixed with 60 μL of B solution and 934 μL of C solution, and added to the wells of the 384-well plate in a volume of 8 μL per well. […] The 384-well microplate was incubated in dark for 2 hours at room temperature. 6. […] 7.
(In a reporter assay the amount or activity of a reporter protein is the signal.)

The target of data set [2] is T2, Glutathione-S-transferase-labeled FXR human protein (Homo sapiens, UniProt Q96RI1).
T2 construct: purchased Invitrogen
T2 sequence (Q96RI1 1-486): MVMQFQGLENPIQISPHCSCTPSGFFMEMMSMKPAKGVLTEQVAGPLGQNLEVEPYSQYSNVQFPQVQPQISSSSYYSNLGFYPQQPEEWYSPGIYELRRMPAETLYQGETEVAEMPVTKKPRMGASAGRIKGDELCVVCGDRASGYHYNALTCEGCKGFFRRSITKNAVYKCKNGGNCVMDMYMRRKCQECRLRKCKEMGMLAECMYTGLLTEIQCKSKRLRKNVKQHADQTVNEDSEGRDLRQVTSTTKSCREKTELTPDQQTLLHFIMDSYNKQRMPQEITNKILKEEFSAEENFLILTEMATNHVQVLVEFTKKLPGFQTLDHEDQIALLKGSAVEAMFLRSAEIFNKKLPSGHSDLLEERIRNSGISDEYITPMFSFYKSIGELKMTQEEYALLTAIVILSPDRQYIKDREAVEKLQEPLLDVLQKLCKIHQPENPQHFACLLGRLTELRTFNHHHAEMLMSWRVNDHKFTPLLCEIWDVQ
Briefly: FXR biochemical experiment (AlphaScreen, coactivator recruitment). The conditions noted are these: ratio of highest signal of the compound to that of the reference compound; read-out: FXR enzyme activity Efficacy. As to the method: FXR Biochemical Experiment Experimental Purpose: The activation effect of the compound on FXR binding reaction was detected by AlphaScreen. […] Protein: Glutathione-S-transferase-labeled FXR human protein (Invitrogen) 2. Co-activator: Biotin-labeled steroid receptor coactivator (Anaspec) 3. […] Compound Dilution: The compound to be tested was prepared as a 40 μM DMSO solution, and then diluted 3-fold to 10 concentration points. The reference compound was prepared as a 400 μM DMSO solution, and then diluted 1.5-fold to 10 concentration points. The diluted DMSO solution was added to the wells of a 384-well plate in a volume of 150 nL per well. 2. […] 4. […] The operation during the experimental process was protected from light. The incubation was performed for 1 hour at room temperature. 5. […] The operation during the experimental process was protected from light. The incubation was performed for 1 hour at room temperature. 6. EC50 test: Envision was used with excitation at 680 nm to read the […] signals at 520-620 nm. 7. Analytical data: The data were analyzed via using Prism 5.0, and the EC50 values of the activation effects of the compounds were calculated.

Data set [3] in a line: Pharmacokinetics in mice administrated with single compound. The format is in vivo, mice (C57BL/6J). The conditions noted are these: mice, oral administration at the same dosage. As to the method: Pharmacokinetics in Mice Administrated with Single Compound:
12 male mice (C57BL/6J) were randomly divided into two groups, i.e., 6 mice per group. […] Plasma (using K2-EDTA as anticoagulant) samples were taken at 0.083, 0.25, 0.5, 1, 2, 4, 6, 8 and 24 hours in the intravenous administration group after administration; and plasma samples were taken at 0.25, 0.5, 1, 2, 4, 6, 8 and 24 hours in the oral administration group after administration. For 6 animals in each group, blood samples were collected for 3 animals at one time point. The first batch of 3 animals was alternately sampled with the second batch of 3 animals. Plasma sample analysis was performed by using LC-MS/MS. The resultant plasma concentrations were plotted with repect to time, and PK parameters were calculated by using Phoenix WinNonlin 6.3.

T1 sequence (Q96RI1 with tags, fused parts or gaps limits assumed): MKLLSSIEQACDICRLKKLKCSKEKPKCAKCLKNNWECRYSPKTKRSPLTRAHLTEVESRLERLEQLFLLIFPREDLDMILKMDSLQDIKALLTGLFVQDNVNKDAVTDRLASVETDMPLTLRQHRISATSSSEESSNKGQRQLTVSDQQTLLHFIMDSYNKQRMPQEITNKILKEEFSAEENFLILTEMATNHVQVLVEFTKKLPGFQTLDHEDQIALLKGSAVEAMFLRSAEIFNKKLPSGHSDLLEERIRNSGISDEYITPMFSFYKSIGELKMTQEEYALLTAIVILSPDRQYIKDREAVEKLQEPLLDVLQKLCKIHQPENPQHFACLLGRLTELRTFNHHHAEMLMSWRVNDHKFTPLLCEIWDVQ

For the molecule `CC[C@H]1[C@@H](O)[C@@H]2[C@H](CC[C@]3(C)[C@@H]([C@H](C)CCOc4ncc(C(=O)O)cc4Cl)CC[C@@H]23)[C@@]2(C)CC[C@@H](O)C[C@@H]12` [Example 23], the Emax in data set [1] came to 150%. Besides, the Emax in data set [2] is 248%. In addition, in data set [3], the “drug exposure compared with control compound INT-747” value is given as “higher” and the “peak concentration compared with control compound INT-747” value is on record as “higher”.
